Series [1] has as its target T1, Lysosomal Pro-X carboxypeptidase (Mus musculus, UniProt Q7TMR0).
T1 sequence (Q7TMR0 whole entry): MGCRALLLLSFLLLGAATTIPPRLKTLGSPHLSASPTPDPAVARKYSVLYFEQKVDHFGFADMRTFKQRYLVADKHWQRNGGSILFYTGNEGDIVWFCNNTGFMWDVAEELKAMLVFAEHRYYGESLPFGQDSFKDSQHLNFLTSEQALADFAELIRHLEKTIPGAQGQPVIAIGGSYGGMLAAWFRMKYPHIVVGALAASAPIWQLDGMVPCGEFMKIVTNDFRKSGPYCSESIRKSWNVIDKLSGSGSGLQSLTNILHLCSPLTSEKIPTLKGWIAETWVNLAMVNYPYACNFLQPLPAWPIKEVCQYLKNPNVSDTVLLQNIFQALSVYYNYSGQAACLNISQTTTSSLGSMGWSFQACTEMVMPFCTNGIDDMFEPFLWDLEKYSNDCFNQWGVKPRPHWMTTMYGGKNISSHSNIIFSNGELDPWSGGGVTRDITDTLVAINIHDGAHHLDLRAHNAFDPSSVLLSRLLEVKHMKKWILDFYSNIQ
In words: Inhibition of recombinant mouse PrCP using Mca-Ala-Pro-Lys(Dnp)-OH as substrate after 30 mins by continuous fluorometric assay.

The nature of series [2]: Fraction unbound in mouse 100% plasma. In kind it is ADME, cell-free.
Series [3] in a line: Clearance in C57Bl/6 mouse at 1 mg/kg, iv and 2 mg/kg, po. It is filed as ADME, organism-based. The conditions noted are these: in vivo.
A short description of series [4]: Half life in C57Bl/6 mouse at 1 mg/kg, iv and 2 mg/kg, po. It is filed as ADME, organism-based. The following applies: in vivo.
Series [5] can be described thus: Oral bioavailability in C57Bl/6 mouse at 2 mg/kg. In kind it is ADME, organism-based. The following applies: in vivo.
Series [6] can be described thus: Volume of distribution in C57Bl/6 mouse at 1 mg/kg, iv and 2 mg/kg, po. It is filed as ADME, organism-based. The following applies: in vivo.
A short description of series [7]: Fraction unbound in human 100% plasma. In kind it is ADME, cell-free.
For series [8], the system named is Mus musculus. In words: Dose normalized AUC in C57Bl/6 mouse at 2 mg/kg, po. On the set-up: dose 2 mg/kg, route oral. It is filed as ADME, organism-based. The conditions noted are these: in vivo.
Series [9] can be described thus: Half life in C57Bl/6 mouse at 2 mg/kg, iv and 10 mg/kg, po. In kind it is ADME, organism-based. The following applies: in vivo.
Series [10] is described as follows: Volume of distribution in C57Bl/6 mouse at 2 mg/kg, iv and 10 mg/kg, po. It is filed as ADME, organism-based. The conditions noted are these: in vivo.
The nature of series [11]: Clearance in C57Bl/6 mouse at 2 mg/kg, iv and 10 mg/kg, po. It is filed as ADME, organism-based. The following applies: in vivo.
The subject of series [12] is Mus musculus. In words: Dose normalized AUC in C57Bl/6 mouse at 10 mg/kg, po. It is filed as ADME, organism-based. On the set-up: dose 10 mg/kg, route oral. The following applies: in vivo.
Series [13] in a line: Oral bioavailability in C57Bl/6 mouse at 10 mg/kg. It is filed as ADME, organism-based. The conditions noted are these: in vivo.

The source of these data is ChEMBL document CHEMBL3233009, “Pyrazoles as non-classical bioisosteres in prolylcarboxypeptidase (PrCP) inhibitors” (Bioorg Med Chem Lett, 2014).

The structures appear in SMILES notation. pIC50: −log10 of the molar value.

As for `Clc1ccc(-c2cc([C@@H]3CC[C@@H](N4CCOCC4)C[C@H]3c3ccc(Br)cc3)[nH]n2)cc1`, the pIC50 (in general, −log10 of the IC50, conventionally taken in molar units) in series [1] is 6.66.
Take `O=C([C@@H]1CC[C@@H](NCc2ccc(Cl)cc2)C[C@H]1c1ccc(F)cc1)N1CC(c2ccccc2)(c2ccccc2)C1`: in [1], the pIC50 was 8.33.
As for `Fc1ccc([C@@H]2CN(CCc3ccccc3)CC[C@H]2c2cc(-c3ccc(Cl)cc3)n[nH]2)cc1.O=C(O)C(F)(F)F`, the results for the fraction unbound in series [2] and in series [7] were less than 0.01 and 0.03, respectively. The clearance in series [3] amounted to 28.9 mL/min/kg. For the same compound, the pIC50 in series [1] was 8.66. Also, the half-life (in general, how long it takes for the measured level to halve) in series [4] was 4.8 h. Also, in series [5], the bioavailability (commonly the share of a dose that reaches the circulation, judged against a reference dose that is usually intravenous) was determined as 33%. The Vd in series [6] was determined as 13.3 L/kg. In the series with Mus musculus [8], this compound came in with an AUC/dose of 0.413 µM·kg·h/mg.
For `Fc1ccc([C@H]2CN(CCc3ccccc3)CC[C@H]2c2cc(-c3ccc(Cl)cc3)n[nH]2)cc1`, the pIC50 in series [1] was 7.62.
Consider `OC(CN1CC[C@@H](c2cc(-c3ccc(Cl)cc3)n[nH]2)[C@H](c2ccc(F)cc2)C1)c1ccccc1` (some centres undefined), for which, in series [1], the pIC50 was 8.23.
The same measure, in the same setting: as for `O=C(CN1CC[C@@H](c2cc(-c3ccc(Cl)cc3)n[nH]2)[C@H](c2ccc(F)cc2)C1)c1ccccc1`, the figure is 7.52.
Consider `Clc1ccc(-c2cc(C3(c4ccccc4)CCN(CCc4ccccc4)CC3)[nH]n2)cc1`, for which the fraction unbound – broadly, free concentration divided by total concentration – in series [2] was less than 0.01; in series [7], 0.03.
On to `Fc1ccc(-c2cc(C3(c4ccccc4)CCN(CCc4ccccc4)CC3)[nH]n2)cc1`, for which the values for the fraction unbound in [2] and in series [7] were less than 0.01 and 0.07, respectively. Moreover, in series [1], the negative logarithm of the IC50 (pIC50) was 7.64.
In the case of `Cn1nc(-c2ccc(F)cc2)cc1C1(c2ccccc2)CCN(CCc2ccccc2)CC1`, the unbound share (fraction unbound) in [2] and in [7] was less than 0.01 in each case. The pIC50 in [1] is 8.44.
For the compound `Cn1nc(-c2ccc(F)cc2)cc1C1(c2ccccn2)CCN(CCc2ccccc2)CC1`, the fraction unbound in series [2] is 0.04; in [7], 0.01.
Take `Cc1ccccc1[C@@H]1C[C@H](N2CCOCC2)CC[C@H]1C(=O)N1CC(c2ccccc2)(c2ccccc2)C1.O=C(O)C(F)(F)F`: in [9], the half-life is 1.7 h. The compound further came in with a Vd in series [10] of 10.8 L/kg. In series [11], this compound registered a clearance of 72.2 mL/min/kg. Also, the fraction unbound in series [2] came out at 0.04; in [7] it was 0.02. The compound further returned an AUC/dose with Mus musculus [12] of 0.037 µM·kg·h/mg. Moreover, the bioavailability in [13] was determined as 7.8%.
As for `Fc1ccc([C@@H]2CN(CCc3ccc(Cl)cc3)CC[C@H]2c2cc(-c3ccc(Cl)cc3)n[nH]2)cc1` (racemic), in [1], the pIC50 was 7.70.
For the compound `Fc1ccc([C@@H]2CN(Cc3ccc(Cl)cc3)CC[C@H]2c2cc(-c3ccc(Cl)cc3)n[nH]2)cc1` (racemic), the fraction unbound in series [2] and in series [7] was less than 0.01 throughout.
Regarding `Fc1ccc([C@@H]2CN(CCC(F)(F)F)CC[C@H]2c2cc(-c3ccc(Cl)cc3)n[nH]2)cc1` (racemic), the pIC50 in series [1] is 7.25.
